Experimental data taken from US6365572B1, “Low molecular weight peptide derivatives as inhibitors of the laminin/nidogen interaction” (Aventis Pharma Deutschland GmbH, priority 1999, dated 2002).
Like-named read-outs stand apart in the source and are kept apart here. Starred links: 1 amine or outer side, 2 acyl side, 3 side chain; linkers in the order of their positions; H or OH if unused. Non-standard residues stand in square brackets, D forms with d. Residues, ends and D or L forms follow the SMILES beside them. No end group written: not given here. ξ: configuration not given here. *: point of attachment. Bip = N[C@@H](Cc1ccc(-c2ccccc2)cc1)C(=O)O; 2Nal = N[C@@H](Cc1ccc2ccccc2c1)C(=O)O; NH(3-hydroxypropyl) = OCCCN*; Suc = O=C(CCC(=O)[*:2])[*:1]; ξN = NC(=O)CC(N)C(=O)O; Bn = c1ccc(C*)cc1

How the values were obtained:
[1] = biological target: T1, laminin/nidogen association (Homo sapiens, UniProt P14543); assay: Three-day equilibrium assay, inhibition of laminin/nidogen association; assay type: binding; settings: Table 2, 3-day equilibrium assay variant
T1 sequence (P14543 29-1247): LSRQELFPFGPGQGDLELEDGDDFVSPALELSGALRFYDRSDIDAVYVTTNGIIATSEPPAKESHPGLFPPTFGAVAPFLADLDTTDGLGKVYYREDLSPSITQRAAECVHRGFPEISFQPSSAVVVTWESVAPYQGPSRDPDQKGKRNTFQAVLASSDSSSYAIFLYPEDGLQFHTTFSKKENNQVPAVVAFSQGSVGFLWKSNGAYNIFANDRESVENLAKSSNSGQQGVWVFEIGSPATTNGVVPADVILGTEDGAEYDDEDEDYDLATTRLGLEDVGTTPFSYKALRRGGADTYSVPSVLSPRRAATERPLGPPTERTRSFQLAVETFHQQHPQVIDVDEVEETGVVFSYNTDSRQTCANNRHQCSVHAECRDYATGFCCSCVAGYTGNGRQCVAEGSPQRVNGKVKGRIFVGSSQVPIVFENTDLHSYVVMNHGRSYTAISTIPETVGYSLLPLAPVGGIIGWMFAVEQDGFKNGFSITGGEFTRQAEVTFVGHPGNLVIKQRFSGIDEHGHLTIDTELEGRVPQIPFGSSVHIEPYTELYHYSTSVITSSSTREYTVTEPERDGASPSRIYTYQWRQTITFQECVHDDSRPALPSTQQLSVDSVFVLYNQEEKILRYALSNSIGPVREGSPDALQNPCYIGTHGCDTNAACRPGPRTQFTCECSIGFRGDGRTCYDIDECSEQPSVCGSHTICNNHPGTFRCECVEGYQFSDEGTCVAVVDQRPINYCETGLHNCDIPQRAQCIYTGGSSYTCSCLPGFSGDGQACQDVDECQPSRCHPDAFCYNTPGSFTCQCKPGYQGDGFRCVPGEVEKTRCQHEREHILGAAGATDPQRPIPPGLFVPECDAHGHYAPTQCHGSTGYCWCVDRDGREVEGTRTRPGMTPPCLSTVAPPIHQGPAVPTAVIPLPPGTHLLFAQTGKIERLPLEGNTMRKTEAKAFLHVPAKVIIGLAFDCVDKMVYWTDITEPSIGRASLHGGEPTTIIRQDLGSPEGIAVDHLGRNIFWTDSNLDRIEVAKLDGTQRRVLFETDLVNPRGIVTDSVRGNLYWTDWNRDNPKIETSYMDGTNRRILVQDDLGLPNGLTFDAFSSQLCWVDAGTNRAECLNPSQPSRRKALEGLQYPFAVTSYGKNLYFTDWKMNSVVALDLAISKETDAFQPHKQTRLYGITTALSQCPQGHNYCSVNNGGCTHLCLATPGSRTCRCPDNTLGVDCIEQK
Source text: 3.1.2. Three-day equilibrium assay Selected inhibitors were investigated for inhibitory activity in this assay variant. The assay is described in U.S. Pat. No. 5,493,008. The following table compares IC50 values of selected substances with the results of the HTS screening assay. It is clear that the 3-day assay gives slightly lower measured values and, as expected, is more sensitive than the screening assay. However, it is also clear from the comparison that inhibitory structures can be identified reliably with the screening assay developed by us.

[2] = biological target: T2, laminin/nidogen interaction (laminin P1, recombinantly produced human nidogen) (Homo sapiens, UniProt P14543); assay: HTS screening assay (time-resolved fluorescence), inhibition of laminin/nidogen binding
T2 construct: made in house; host or cells: HEK-293
T2 sequence (P14543 29-1247): T1 sequence (P14543 29-1247)
Method: 5) The compound stocks were preincubated with nidogen (10 μl compound stock to 90 μl nidogen solution) and the assay was performed as described in the attached protocol, yielding a final screening concentration of 2.7 μM per compound. The isolation of laminin P1 from human placenta, human nidogen from transfected HEK-293 cells and mouse laminin γ1III 3-5 from HEK-293 cells is described in WO 98/31709. 3.1.1. HTS screening assay (highly sensitive assay variant): Time-Resolved Fluorescence Assay Coating of test tubes Microtiter plates (for example FluoroNunc®) were coated with 75 μl of a 0.1 μg/ml solution of laminin P1 (in 0.159 g of Na2CO3, 0.293 g of NaHCO3, 0.02 g of NaN3/liter, pH 9.2) at room temperature for 1 hour. The solution was then tipped off, and free binding sites were blocked by incubation with 0.5% BSA (in 7.9 g of NaCl, 1.2 g of Na2HPO4, 0.31 g of KCl, 0.23 g of NaH2PO4, 0.04% Tween 20/liter, pH 7.2) at room temperature for 0.5 hour. Completion of the blocking reaction was followed by decantation of the solution and washing once with 250 μl of washing buffer (PBS/0.04% Tween). Sequential inhibition In parallel with the coating, a preincubation of 85-100 μl of a 0.25 nM nidogen solution (recombinantly produced human nidogen) with inhibitor or standard was carried out in a separate reaction vessel (1 hour at room temperature in 7.9 g of NaCl, 1.2 g of Na2HPO4, 0.31 g of KCl, 0.23 g of NaH2PO4, 0.04% Tween 20/liter, 0.5% BSA, pH 7.2). 75 μl of the preincubation (nidogen+inhibitor or standard) were transferred into the coated wells of the microtiter plate and incubated at room temperature for 1 hour. This was followed by washing twice with PBS/0.04% Tween. Detection of the bound nidogen took place by incubation (at room temperature) for 1 hour with 75 μl of a specific antibody preparation obtained from yolks of eggs from a chicken immunized with human nidogen. The IgY fraction was used in a dilution of 1:500 in PBS/0.04% Tween. The complex of nidogen and specifically bound antibodies was, after washing twice with PBS/0.04% Tween, detected by adding anti-chicken IgY-biotin (75 μl of a 1:2500 dilution; Promega, Madison, Wis. 53711, 608-274-4330). An incubation time of 1 hour and washing twice with PBS/0.04% Tween were followed for this purpose by incubation with streptavidin-europium (Wallac; 1 hour at room temperature) and washing twice with PBS/0.04% Tween. It was finally possible, after adding 100 μl of enhancement solution (Wallac) and shaking for 5 minutes, to measure a fluorescence signal in a Victor multilabel counter using the europium protocol. The relation between the amount, of bound nidogen in the solutions with inhibitor and that of nidogen without added inhibitor was found.

[3] = Table 2, HTS assay variant, read-out: IC50, HTS assay
[4] = results table 1.3, synthesized compounds 1 to 43, read-out: IC50

Row | Compound | IC50 [1] [nM] | IC50 [2, 3] [nM] | IC50 [2, 4] [nM]
1 | CC(C)[C@H](NC(=O)[C@H](CO)NC(=O)[C@H](CC(N)=O)NC(=O)[C@H](Cc1ccc2ccccc2c1)NC(=O)CCC(=O)O)C(=O)NCC(=O)NCCCO [Compound 24, Succinyl-L-3-(2-naphthyl)alanyl-L-asparaginyl-L-seryl-L-valyl-glycine-3-hydroxypropylamide] (Suc-[2Nal]NSVG-{NH(3-hydroxypropyl)}) | 90 | 360 | 390
2 | CC(C)[C@H](NC(=O)[C@H](C)NC(=O)[C@H](CC(N)=O)NC(=O)[C@H](Cc1ccc2ccccc2c1)NC(=O)CCC(=O)O)C(N)=O [Compound 31, Succinyl-L-3-(2-naphthyl)alanyl-L-asparaginyl-L-alanyl-L-valine-amide] (Suc-[2Nal]NAV-NH2) | 85 | 190 | 190
3 | CC(C)[C@H](NC(=O)CNC(=O)[C@H](CC(N)=O)NC(=O)[C@H](Cc1ccc2ccccc2c1)NC(=O)CCC(=O)O)C(N)=O [Compound 33, Succinyl-L-3-(2-naphthyl)alanyl-L-asparaginyl-glycinyl-L-valine-amide] (Suc-[2Nal]NGV-NH2) |  |  | 720
4 | CC(C)[C@H](NC(=O)[C@H](C)NC(=O)[C@H](CC(N)=O)NC(=O)[C@H](Cc1ccc(OCc2ccccc2)cc1)NC(=O)CCC(=O)O)C(N)=O [Compound 35, Succinyl-L-O-benzyl-tyrosyl-L-asparaginyl-L-alanyl-L-valine-amide] (Suc-Y(Bn)NAV-NH2) |  |  | 5020
5 | CC(C)[C@H](NC(=O)[C@H](C)NC(=O)[C@H](CC(N)=O)NC(=O)[C@H](Cc1ccc(-c2ccccc2)cc1)NC(=O)CCC(=O)O)C(N)=O [Compound 36, Succinyl-L-3-(4-biphenyl)alanyl-L-asparaginyl-L-alanyl-L-valine-amide] (Suc-[Bip]NAV-NH2) |  |  | 2830
6 | CC(C)[C@H](NC(=O)[C@H](C)NC(=O)[C@H](CC(N)=O)NC(=O)[C@H](Cc1ccc2ccccc2c1)NC(=O)CCC(=O)O)C(=O)O [Compound 37, Succinyl-L-3-(2-Naphthyl)alanyl-L-asparaginyl-L-alanyl-L-valine] (Suc-[2Nal]NAV-OH) |  |  | 830

Next, values leading:

Row | IC50 [1] [nM] | IC50 [2, 3] [nM] | IC50 [2, 4] [nM] | Compound
7 |  |  | 260 | CC(C)[C@@H](CO)NC(=O)[C@H](C)NC(=O)[C@H](CC(N)=O)NC(=O)[C@H](Cc1ccc2ccccc2c1)NC(=O)CCC(=O)O [Compound 38, Succinyl-L-3-(2-Naphthyl)alanyl-L-asparaginyl-L-alaninyl-L-valinol]
8 |  |  | 1500 | CC(C)C(NC(=O)[C@H](C)NC(=O)[C@H](CC(N)=O)NC(=O)[C@H](Cc1ccc2ccccc2c1)NC(=O)CCC(=O)O)C(C)C [Compound 39, Succinyl-L-3-(2-Naphthyl)alanyl-L-asparaginyl-L-alanine-2,4-dimethylpentylamide]
9 |  |  | 1160 | C[C@H](NC(=O)[C@H](CC(N)=O)NC(=O)[C@H](Cc1ccc2ccccc2c1)NC(=O)CCC(=O)O)C(=O)NCC(C)(C)C [Compound 40, Succinyl-L-3-(2-Naphthyl)alanyl-L-asparaginyl-L-alanine-neopentylamide]
10 |  |  | 8170 | C[C@H](NC(=O)[C@H](CC(N)=O)NC(=O)[C@H](Cc1ccc2ccccc2c1)NC(=O)CCC(=O)O)C(=O)N1CCCC(C)(C)C1 [Compound 41, Succinyl-L-3-(2-Naphthyl)alanyl-L-asparaginyl-L-alanine-3,3-dimethylpiperidinylamide]
11 |  |  | 240 | CC(C)[C@H](NC(=O)[C@H](C)NC(=O)[C@H](CC(N)=O)NC(=O)[C@H](Cc1ccc2ccccc2c1)NC(=O)CCC(=O)O)C(=O)N(C)C [Compound 42, Succinyl-L-3-(2-Naphthyl)alanyl-L-asparaginyl-L-alanyl-L-valine-dimethylamide] (Suc-[2Nal]NAV-NMe2)
12 | 1200 | 3900 |  | CC[C@H](C)[C@H](NC(=O)C(N)CC(N)=O)C(=O)N[C@@H](CC(=O)O)C(=O)N1CCC[C@H]1C(=O)N[C@@H](CC(N)=O)C(=O)N[C@@H](C)C(=O)N[C@H](C(=O)O)C(C)C (stereo partly drawn) [NIDPNAV, Asn-lie-Asp-Pro-Asn-Ala-Val, reference compound] (H-[ξN]IDPNAV-OH)
13 | 5000 | 7700 |  | DPNAV [DPNAV, reference compound]
